Assay results taken from publication PMC2206373, “Identification of an altered peptide ligand based on the endogenously presented, rheumatoid arthritis-associated, human cartilage glycoprotein-39(263–275) epitope: an MHC anchor variant peptide for immune modulation” (Arthritis Research & Therapy, 2007).
Where two headings read alike, the source gives them in different places. Non-standard residues stand in square brackets, D forms with d. Residues, ends and D or L forms follow the SMILES beside them. No end group written: not given here. Dip = N[C@H](C(=O)O)C(c1ccccc1)c1ccccc1; Tic = O=C(O)[C@@H]1Cc2ccccc2CN1

Legend:
T cell hybridoma 5G11 = assay: T hybridoma 5G11 IL-2 response; format: cell-based, mouse; details: for T hybridoma (SI) 5G11: Figure 1, IL-2 production, duplicate or triplicate, background 29,203 counts, ±30% of WT response = super/partial agonist; for T hybridoma (SI) 5G11 / Hybridoma response (SI) 5G11: DRB1*0401 BLCL as APC; for Hybridoma response (SI) 5G11: IL-2 by ELISA after 48 h, peptide 10 μg/ml, SI > 2 positive
Procedure: (§1) The T cell hybridomas, provided by G Sonderstrup (Stanford, CA, USA), were generated as described. In brief, human CD4, HLA-DRA*101/HLA-DRB*0401 triple transgenic (HLA-DR4trg) mice (devoid of I-Aβ) were immunized in the footpad with 50 μg of purified HC gp-39 mixed in incomplete Freund's adjuvant (IFA). Draining lymph nodes were isolated and T-cell hybridomas were generated by polyethylene glycol fusion of primed and in vitro antigen-restimulated lymph node cells with the AKR BW5147 fusion partner. Following fusion, growth-positive hybridoma wells were screened for reactivity to HC gp-39 and a set of 55 peptides (16 amino acids in length) covering the entire HC gp-39 sequence. HLA-DR4(B1*0401)-restricted hybridomas responsive to both the HC gp-39 protein and the immunodominant epitope 263–275 of HC gp-39 (for example, 5G11, 8B12, 14G11 and 20H5) were cloned, subcloned, characterised and selected for further study.
(§2) HC gp-39-specific IL-2 production by T hybridomas was measured in wells of round-bottomed microtiter plates. Hybridoma cells (2 to 5 × 10^4) and irradiated APC (0.5 to 1 × 10^5; 12,000 to 16,000 RAD) from the B lymphoblastoid cell line (BLCL) carrying the DRB1*0401 specificity were incubated in 150 μl volumes. Antigen was added in 50 μl volumes to duplicate wells. After 48 h, 100 μl of the culture supernatant was assayed for IL-2 production using a sandwich ELISA with Pharmingen antibodies specific for mouse IL-2. The antigen sensitivity of the hybridomas to both peptide and protein was determined (Figure 2). […] In later assays, an excess of peptide or APL (10 μg/ml), inducing maximal responses in all hybridomas, was tested.

HLA-DR4(B1*0401) = HLA-DR4(B1*0401) (Homo sapiens, UniProt P01903+P01911, A100K/A169T/F76Y/I96L/K127E/L162R/M171V/N62H/P40V/Q125Y/R42H/S133A/S149N/S66Y/V115G/V209L/W38E); assay: HLA-DR4 competition peptide binding assay; details: competition with biotinylated HA307-319 (Y309F) 50 nM, purified HLA-DR4 30 nM, pH 5, 48 h, room temperature
Procedure: HLA-DR bound marker peptide was separated from free marker peptide and the amount of bound marker peptide was detected and quantified by enhanced chemoluminescense. Inhibition curves were generated and the IC50 was determined. The concentration of competitor peptide inducing 50% inhibition of marker peptide binding was determined, and expressed as the 50% inhibitory concentration (IC50 in μM).

T cell hybridoma 8B12 = assay: T hybridoma 8B12 IL-2 response; format: cell-based, mouse; details: for T hybridoma (SI) 8B12: Figure 1, IL-2 production, duplicate or triplicate, background 16,288 counts, ±30% of WT response = super/partial agonist; for T hybridoma (SI) 8B12 / Hybridoma response (SI) 8B12: DRB1*0401 BLCL as APC; for Hybridoma 8B12 activation (IL-2 production) in words: Figure 1 experiment, compared with WT peptide; for Hybridoma response (SI) 8B12: IL-2 by ELISA after 48 h, peptide 10 μg/ml, SI > 2 positive
Procedure: as §1, §2

[1] = tested on: popliteal lymph node cells from F265(Dip)-immunized HLA-DR4trg mice; assay: Antigen-specific cytokine production of popliteal lymph node cells from F265(Dip)-immunized mice; format: cell-based, mouse; details: Figure 4b
Procedure: (§3) Mice, obtained from L Fugger (Oxford, UK), were immunized in the hind footpads with 2 × 50 μg of purified recombinant HC gp-39, with 2 × 100 μg of the WT peptide or with 2 × 100 μg of the APL (F265(Dip); compound 28; Figure 1) mixed in IFA. Seven days later, popliteal lymph node cell suspensions (1 to 2 × 10^5 cells/well) were stimulated in vitro with HC gp-39 (50, 10 or 2 μg/ml), HC gp-39(263–275) or APL (10, 2 and 0.4 μg/ml). At 96 h, 50 μl of culture medium was harvested for analysis of antigen-specific cytokine production using Luminex technology (mouse cytokine 18 Plex Panel, catalogue no. 171-F11181, Biorad, Bio-Rad Laboratories, Hercules, CA, USA). In addition, cultures were labelled with tritiated thymidine (for 18 h) and antigen-specific proliferation was determined. We state that all animal experimentation received ethics approval and animals were treated according to the recognized guidelines.

T cell hybridoma 14G11 = assay: T hybridoma 14G11 IL-2 response; format: cell-based, mouse; details: for T hybridoma (SI) 14G11: Figure 1, IL-2 production, duplicate or triplicate, background 7,152 counts, ±30% of WT response = super/partial agonist; for T hybridoma (SI) 14G11 / Hybridoma response (SI) 14G11: DRB1*0401 BLCL as APC; for Hybridoma 14G11 activation (IL-2 production) in words: Figure 1 experiment, compared with WT peptide; for Hybridoma response (SI) 14G11: IL-2 by ELISA after 48 h, peptide 10 μg/ml, SI > 2 positive
Procedure: as §1, §2

[2] = tested on: popliteal lymph node cells from HC gp-39(263–275)-immunized huCD4, HLA-DR4 transgenic mice; assay: Antigen-specific cytokine production of popliteal lymph node cells from WT peptide-immunized mice; format: cell-based, mouse; details: for Ex vivo recall IFNγ production in words / Ex vivo recall Mip1α production in words / Ex vivo recall RANTES production in words: Figure 4a, WT peptide-immunized HLA-DR4trg mice; for IFNγ concentration / MIP1α concentration / RANTES concentration: 96 h supernatant, Luminex
Procedure: as §3

[3] = tested on: popliteal lymph node cells from HC gp-39(263–275)-immunized huCD4, HLA-DR4 transgenic mice; assay: Antigen-specific proliferation of popliteal lymph node cells from WT peptide-immunized mice; format: cell-based, mouse; details: for Ex vivo recall proliferative response in words: Figure 4a, WT peptide-immunized HLA-DR4trg mice; for Prol (SI): 96 h, tritiated thymidine, background 407 cpm, SI > 2 positive, SD not above 30%
Procedure: as §3

[4] = tested on: popliteal lymph node cells from F265(Dip)-immunized HLA-DR4trg mice; assay: Antigen-specific proliferation of popliteal lymph node cells from F265(Dip)-immunized mice; format: cell-based, mouse; details: Figure 4b
Procedure: as §3

T cell hybridoma 20H5 = assay: T hybridoma 20H5 IL-2 response; format: cell-based, mouse; details: for Hybridoma response (SI) 20H5: IL-2 by ELISA after 48 h, peptide 10 μg/ml, DRB1*0401 BLCL as APC, SI > 2 positive
Procedure: as §1, §2

[5] = Figure 1, read-out: DRB1*0401 binding IC50
[6] = Table 1, background 8,147 counts, representative of at least three experiments
[7] = Table 1, geometric mean of two experiments, read-out: HLA-DR binding IC50
[8] = Table 1, background 7,470 counts, representative of at least three experiments
[9] = Table 1, background 8,598 counts, representative of at least three experiments
[10] = Table 1, background 35,749 counts, representative of at least three experiments

| Compound | T hybridoma (SI) 5G11 (T cell hybridoma 5G11) [SI] | IC50 (HLA-DR4(B1*0401); [5]) [nM] | T hybridoma (SI) 8B12 (T cell hybridoma 8B12) [SI] | Hybridoma 8B12 activation (IL-2 production) in words (T cell hybridoma 8B12) | In vitro recall IFNγ production in words [1] | In vitro recall Mip1α production in words [1] | In vitro recall RANTES production in words [1] | T hybridoma (SI) 14G11 (T cell hybridoma 14G11) [SI] | Hybridoma 14G11 activation (IL-2 production) in words (T cell hybridoma 14G11) | Ex vivo recall IFNγ production in words [2] | Ex vivo recall Mip1α production in words [2] | Ex vivo recall RANTES production in words [2] | Ex vivo recall proliferative response in words [3] | In vitro recall proliferative response in words [4] | Hybridoma response (SI) 5G11 (T cell hybridoma 5G11; [6]) [SI] | IC50 (HLA-DR4(B1*0401); [7]) [nM] | Hybridoma response (SI) 8B12 (T cell hybridoma 8B12; [8]) [SI] | Hybridoma response (SI) 14G11 (T cell hybridoma 14G11; [9]) [SI] | Hybridoma response (SI) 20H5 (T cell hybridoma 20H5; [10]) [SI] | further results |
| --- | --- | --- | --- | --- | --- | --- | --- | --- | --- | --- | --- | --- | --- | --- | --- | --- | --- | --- | --- | --- |
| CC(C)C[C@H](NC(=O)[C@@H](NC(=O)[C@@H]1Cc2ccccc2CN1C(=O)[C@H](CO)NC(=O)[C@@H](N)CCCNC(=N)N)[C@@H](C)O)C(=O)N[C@@H](C)C(=O)N[C@@H](CO)C(=O)N[C@@H](CO)C(=O)N[C@@H](CCC(=O)O)C(=O)N[C@H](C(=O)NCC(=O)N[C@H](C(=O)NCC(=O)O)C(C)C)[C@@H](C)O [Compound 27] (H-RS[Tic]TLASSETGVG-OH) | 12 | 21 | 8 | partial activation | failed to induce significant levels | failed to induce significant levels | failed to induce significant levels | 21 | partial activation | increased production | increased production | increased production | comparable proliferative responses |  |  |  |  |  |  | Hybridoma 5G11 activation (IL-2 production) in words (T cell hybridoma 5G11; Figure 1 experiment, compared with WT peptide): partial activation |
| CC(C)C[C@H](NC(=O)[C@@H](NC(=O)[C@@H](NC(=O)[C@H](CO)NC(=O)[C@@H](N)CCCNC(=N)N)C(c1ccccc1)c1ccccc1)[C@@H](C)O)C(=O)N[C@@H](C)C(=O)N[C@@H](CO)C(=O)N[C@@H](CO)C(=O)N[C@@H](CCC(=O)O)C(=O)N[C@H](C(=O)NCC(=O)N[C@H](C(=O)NCC(=O)O)C(C)C)[C@@H](C)O [Compound 28] (H-RS[Dip]TLASSETGVG-OH) | 29 | 10 | 5 | partial activation | barely detectable | barely detectable | barely detectable | 6 | partial activation | lesser | unaltered | unaltered | comparable proliferative responses | good proliferative activity |  |  |  |  |  |  |
| LASSETGVG [Compound 8] |  |  |  |  |  |  |  |  |  |  |  |  |  |  | 1 | > 100000 | 1 | 1 | 1 |  |
| RSATLASSETGVG [Compound 12] |  |  |  |  |  |  |  |  |  |  |  |  |  |  |  |  |  |  |  | Recognition by hybridoma 5G11 in words (T cell hybridoma 5G11; Table 2): not recognized; Hybridoma response (SI) 5G11 (T cell hybridoma 5G11; Table 2, background 17,238 counts, SD not above 15%): 2 SI; IC50 (HLA-DR4(B1*0401); Table 2, read-out: HLA-DR binding IC50): > 35000 nM; Reactivity of hybridoma 8B12 in words (T cell hybridoma 8B12; Table 2): affected to a lesser extent; Hybridoma response (SI) 8B12 (T cell hybridoma 8B12; Table 2, background 8,773 counts, SD not above 15%): 6 SI; Recognition by hybridoma 14G11 in words (T cell hybridoma 14G11; Table 2): not recognized; Hybridoma response (SI) 14G11 (T cell hybridoma 14G11; Table 2, background 10,131 counts, SD not above 15%): 2 SI; Reactivity of hybridoma 20H5 in words (T cell hybridoma 20H5; Table 2): only slightly affected; Hybridoma response (SI) 20H5 (T cell hybridoma 20H5; Table 2, background 290,666 counts, SD not above 15%): 4 SI; IFNγ concentration ([2]; peptide 2 μg/ml): <5 pg/mL; MIP1α concentration ([2]; peptide 2 μg/ml): <24 pg/mL; RANTES concentration ([2]; peptide 2 μg/ml): <6 pg/mL; IFNγ concentration ([2]; peptide 10 μg/ml): <5 pg/mL; MIP1α concentration ([2]; peptide 10 μg/ml): 27 pg/mL; RANTES concentration ([2]; peptide 10 μg/ml): 9 pg/mL; Polyclonal response (proliferation and cytokine production) in words ([3]; Table 3, lymph node cells of WT peptide-immunized HLA-DR4trg mice): did not elicit a significant response; Prol (SI) ([3]; peptide 2 μg/ml): 1 SI; Prol (SI) ([3]; peptide 10 μg/ml): 3 SI |
| TLASSETGVG [Compound 7] |  |  |  |  |  |  |  |  |  |  |  |  |  |  | 1 | > 100000 | 1 | 1 | 5 |  |
| human cartilage glycoprotein-39 [HC gp-39 protein] |  |  |  |  | failed to induce significant levels | failed to induce significant levels | failed to induce significant levels |  |  |  |  |  |  | somewhat less |  |  |  |  |  |  |
